The values that follow come from patent US20260265265A1, “NOVEL BENZIMIDAZOLONE DERIVATIVE COMPOUND AS AUTOTAXIN INHIBITOR” (LG CHEM, LTD., priority 2023, published 2026).

This experiment deals with T1, Recombinant Human ENPP-2/Autotaxin (Homo sapiens, UniProt Q13822).
T1 construct: purchased R&D systems 5255-EN
As to the kind of experiment: LysoPLD activity measurement (autotaxin enzyme inhibition, choline release, TOOS reagent). It counts as biochemical. The settings on record: LysoPLD inhibitory activity; substrate 14:0 LysoPC; absorbance at 555 nm. A digest of the protocol: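 Autotaxin lysoPLD activity was read as choline released from 14:0 LysoPC, detected by TOOS reagent absorbance. Compound was preincubated 30 min, then substrate diluted to 300 μM was added and the reaction ran 90 minutes at 37° C. Controls contained 1% DMSO.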
What is called IC50 is the point on the concentration scale where inhibition reaches its midpoint. Turning to `CN(C)c1ccc(-n2c(=O)n(C3(c4cc(F)cc(C(=O)O)c4)CC3)c3ncc(Cl)cc32)cc1` [Example 271, 3-(1-(6-chloro-1-(4-(dimethylamino)phenyl)-2-oxo-1,2-dihydro-3H-imidazo[4,5-b]pyridin-3-yl)cyclopropyl)-5-fluorobenzoic acid], the IC50 was less than 0.01 µM.
Consider `CN(C)C(=O)c1ccc(-n2c(=O)n(C3(c4cc(F)cc(C(=O)O)c4)CC3)c3ncc(Cl)cc32)cc1` [Example 272, 3-(1-(6-chloro-1-(4-(dimethylcarbamoyl)phenyl)-2-oxo-1,2-dihydro-3H-imidazo[4,5-b]pyridin-3-yl)cyclopropyl)-5-fluorobenzoic acid], for which the IC50 was less than 0.01 µM.
Under `O=C(O)c1cc(F)cc(C2(n3c(=O)n(-c4ccc(C5CCOCC5)cc4)c4cc(Cl)cnc43)CC2)c1` [Example 273, 3-(1-(6-chloro-2-oxo-1-(4-(tetrahydro-2H-pyran-4-yl)phenyl)-1,2-dihydro-3H-imidazo[4,5-b]pyridin-3-yl)cyclopropyl)-5-fluorobenzoic acid] stands 0.01 to 0.1 µM; under `O=C(O)c1cc(F)cc(C2(n3c(=O)n(-c4ccc(N5CCOCC5)cc4)c4cc(Cl)cnc43)CC2)c1` [Example 274, 3-(1-(6-chloro-1-(4-morpholinophenyl)-2-oxo-1,2-dihydro-3H-imidazo[4,5-b]pyridin-3-yl)cyclopropyl)-5-fluorobenzoic acid], less than 0.01 µM.
On to `O=C(O)c1cc(F)cc(C2(n3c(=O)n(-c4ccc(C(=O)N5CC6(CCOCC6)C5)cc4)c4cc(Cl)cnc43)CC2)c1` [Example 275, 3-(1-(1-(4-(7-oxa-2-azaspiro[3.5]nonane-2-carbonyl)phenyl)-6-chloro-2-oxo-1,2-dihydro-3H-imidazo[4,5-b]pyridin-3-yl)cyclopropyl)-5-fluorobenzoic acid], for which the IC50 is less than 0.01 µM.
For `O=C(O)c1cc(F)cc(C2(n3c(=O)n(-c4ccc(C(=O)N5CCCC5)cc4)c4cc(Cl)cnc43)CC2)c1` [Example 276, 3-(1-(6-chloro-2-oxo-1-(4-(pyrrolidine-1-carbonyl)phenyl)-1,2-dihydro-3H-imidazo[4,5-b]pyridin-3-yl)cyclopropyl)-5-fluorobenzoic acid], the IC50 was less than 0.01 µM.
